Experiment [1] has as its system common cutworm (Spodoptera litura). Kind of experiment: Insecticidal testing against common cutworm (cabbage leaf dip, second-stage larvae). Type of experiment: in vivo. The note with it: comparative test, procedure and conditions of Experimental Example 1. The protocol: Insecticidal Testing Against Common Cutworm (Spodoptera litura) Cabbage leaves were immersed in a liquid comprising the testing compound to a predetermined concentration for 30 seconds and air-dried. They were placed in a 7-cm polyethylene cup, and the second-stage larvae of common cutworm were left therein. The cup was placed in a constant-temperature room at 25° C., and the survival rate was investigated after 3 days. The test was carried out with two groups of 5 larvae per group. As a result, Compound No. (to be described later)

In experiment [2] the test system is diamondback moth (Plutella xylostella). As to the kind of experiment: Insecticidal testing against diamondback moth (cabbage leaf dip, second-stage larvae). The format is in vivo. The settings on record: comparative test, procedure and conditions of Experimental Example 2. The protocol:
Insecticidal Testing Against Diamondback Moth (Plutella xylostella) Cabbage leaves were immersed in a liquid comprising the testing compound to a predetermined concentration for 30 seconds and air-dried. They were placed in a 7-cm polyethylene cup, and the second-stage larvae of diamondback moth were left therein. The cup was placed in a constant-temperature room at 25° C., and the survival rate was investigated after 3 days. The test was carried out with two groups of 5 larvae per group. As a result, Compound No. (to be described later)

As for `Cc1cc(C(F)(C(F)(F)F)C(F)(F)F)ccc1NC(=O)c1cccc(NC(=O)c2ccccc2I)c1` [Compound A, N-(4-heptafluoroisopropyl-2-methyl)phenyl 3-(2-iodobenzoylamino)benzamide], the insecticidal activity entry in experiment [1] and in experiment [2] was “not observed” in each case.
On to `Cc1cc(C(F)(F)F)cc(C)c1NC(=O)c1cccc(NC(=O)c2ccccc2)c1` [Compound B, N-(2,6-dimethyl-4-trifluoromethyl)phenyl 3-(benzoylamino)benzamide], for which the insecticidal activity result in experiment [1] and in experiment [2] was “not observed” throughout.

Source of the values: US10435385B2, “Amide derivatives, process for preparation thereof and use thereof as insecticide” (MITSUI CHEMICALS, INC., priority 2004, dated 2019).
